From US6875578B2, “System for cell-based screening” (priority 1997, dated 2005)
Entries after “also recorded” stand apart in the source; their conditions may differ.

Columns and labels:
[1] = system: caspase-3; assay: Caspase-3 biosensor apoptosis assay, MCF-7 cells; format: cell-based; details: MCF-7 cells transfected with the caspase 3 biosensor
Protocol: For DNA transfection, BHK cells and MCF-7 cells were cultured to 50-70% confluence in 6 well plates containing 3 ml of minimal Eagle's medium (MEM) with 10% fetal calf serum, 1 mM L-glutamine, 50 μg/ml streptomycin, 50 μg/ml penicillin, 0.1 mM non-essential amino acids, 1 mM sodium pyruvate and 10 μg/ml of bovine insulin (for MCF-7 cell only) at 37° C. in a 5% CO2 incubator for about 36 hours. The cells were washed with serum free MEM media and incubated for 5 hours with 1 ml of transfection mixture containing 1 μg of the appropriate plasmid and 4 μg of lipofectimine (BRL) in the serum free MEM media. Subsequently, the transfection medium was removed and replaced with 3 ml of normal culture media. The transfected cells were maintained in growth medium for at least 16 hours before performing selection of the stable cells based on standard molecular biology methods (Ausubel. et al 1995).
For apoptosis assays, the cells (BHK, MCF-7) stably transfected with the appropriate protease biosensor expression vector were plated on tissue culture treated 96-well plates at 50-60% confluence and cultured overnight at 37° C., 5% CO2. Varying concentrations of cis-platin, staurosporine, or paclitaxel in normal culture media were freshly prepared from stock and added to cell culture dishes to replace the old culture media. The cells were then observed with the cell screening system of the present invention at the indicated time points either as live cell experiments or as fixed end-point experiments.
This biosensor is restricted to the cytoplasm by the reactant target sequence. The reactant target sequence is the annexin II cytoskeletal binding domain ([…]) (SEQ ID NO:124) (FIG. 29C) (Eberhard et al. 1997. Mol. Biol. Cell 8:293a). The enzyme recognition site corresponds to two copies of the amino acid sequence DEVD (SEQ ID NO:60) (FIG. 29B), which serves as the recognition site of caspase-3. […]
The biosensor response is measured by quantitating the effective cytoplasm-to-nuclear translocation of the signal (see above). […]

[2] = system: BHK cells; assay: Apoptosis mitochondrial mass/potential, BHK cells; format: cell-based; details: 30 hours
Protocol: (§1) Cells were plated into 96-well plates at densities of 3×10^3 to 1×10^4 cells/well. The following day apoptotic inducers were added at the indicated concentrations and cells were incubated for the indicated time periods (usually 16-30 hours). Cells were stained with 5 μg/ml Hoechst (Molecular Probes, Inc.) and 750 nM MITOTRACKER™ Red (CMXRos, Molecular Probes, Inc.) in fresh medium and incubated for 30 minutes at 37° C. Cells were washed in HBSS and fixed with 3.7% formaldehyde in HBSS at room temperature. Plates were washed with HBSS and permeabilized with 0.5% v/v TRITON™ X-100 in HBSS at room temperature. Cells were washed 2× with HBSS at room temperature and the plate was sealed. For dual labeling of mitochondria, cells were treated with 200 nM MITOTRACKER™ Green and 200 nM MITOTRACKER™ Red for 0.5 hours before fixation.
(§2) The mitochondrial membrane potential is measured by labeling mitochondria with both MITOTRACKER™ Green FM and MITOTRACKER™ Red (Molecular Probes, mc). MITOTRACKER™ Red labeling is proportional to both mass and membrane potential. MITOTRACKER™ Green FM labeling is proportional to mass. The ratio of MITOTRACKER™ Red signal to the MITOTRACKER™ Green FM signal provides a measure of mitochondrial membrane potential (Poot and Pierce, 1999). This ratio normalizes the […]. […]

[3] = system: L929 cells; assay: Apoptosis mitochondrial mass/potential, L929 cells; format: cell-based, mouse; details: 30 hours
Protocol: as §1, §2

[4] = system: BHK cells; assay: Apoptosis nuclear morphology, BHK cells; format: cell-based; details: 30 hours
Protocol: (§3) Cells were plated into 96-well plates at densities of 3×10^3 to 1×10^4 cells/well. The following day apoptotic inducers were added at indicated concentrations and cells were incubated for indicated time periods (usually 16-30 hours). The next day medium was removed and cells were stained with 5 μg/ml Hoechst (Molecular Probes, Inc.) in fresh medium and incubated for 30 minutes at 37° C. Cells were washed in Hank's Balanced Salt Solution (HBSS) and fixed with 3.7% formaldehyde in HBSS at room temperature. Cells were washed 2×with HBSS at room temperature and the plate was sealed.
(§4) Quantitation of changes in nuclear morphology upon induction of apoptosis was accomplished by (1) measuring the effective size of the nuclear region; and (2) measuring the degree of convolution of the perimeter.

[5] = system: BHK cells; assay: Apoptosis actin reorganization (f-actin content), BHK cells; format: cell-based; details: 30 hours
Protocol: Cells were plated in 96-well plates at densities of 3×10^3 to 1×10^4 cells/well. The following day apoptotic inducers were added at indicated concentrations. Cells were incubated for the indicated time periods (usually 16-30 hours). The next day the medium was removed and cells were stained with 5 μg/ml Hoechst (Molecular Probes, Inc.) in fresh medium and incubated for 30 minutes at […]. Cells were washed in HBSS and fixed with 3.7% formaldehyde in HBSS at room temperature. Plates were washed with HBSS and permeabilized with 0.5% v/v Triton X-100 in HBSS at room temperature. Plates were washed in HBSS and stained with 100 μl of 1 U/ml of Alexa 488 Phalloidin stock (100 μl/well, Molecular Probes, Inc.). Cells were washed 2×with HBSS at RT and the plate was sealed.
Quantitation of f-actin content was accomplished by measuring the intensity of phalloidin staining around the nucleus. This was determined to be a reasonable approximation of a full cytoplasmic average of the intensity. The mask used to approximate this cytoplasmic measure was derived from the nuclear mask defined by the Hoechst stain. Derivation was accomplished by combinations of erosions and dilations.

[6] = system: L929 cells; assay: Apoptosis nuclear morphology, L929 cells; format: cell-based, mouse; details: 30 hours
Protocol: as §3, §4

[7] = system: MCF-7 cells; assay: Apoptosis nuclear morphology, MCF-7 cells; format: cell-based; details: 30 hours
Protocol: as §3, §4

`CC(=O)O[C@H]1C(=O)[C@@]2(C)[C@H]([C@H](OC(=O)c3ccccc3)[C@]3(O)C[C@H](OC(=O)[C@H](O)[C@@H](NC(=O)c4ccccc4)c4ccccc4)C(C)=C1C3(C)C)[C@]1(OC(C)=O)CO[C@@H]1C[C@@H]2O` [paclitaxel] was tested, and the “caspase activation reported by the biosensor” value [1] was “stimulated”, the “mitochondrial changes (mass / membrane potential)” value [2] was “consistent increases in mitochondrial mass” and the “mitochondrial changes (mass / membrane potential)” value [3] was “consistent increases in mitochondrial mass”. For the same compound, the “change in nuclear morphology” value [4] was “consistent increase in nuclear fragmentation with increasing concentrations; also recorded: a more classical response”, the “change in peri-nuclear f-actin content” value [5] was “results that are more variable” and the “change in peri-nuclear f-actin content” value ([5]; listed as Paclitaxel) was “highly variable”. For the same compound, the “change in nuclear morphology” value [6] was “dose-dependent change in nuclear morphology; also recorded: classic nuclear fragmentation” and the “change in nuclear morphology” value [7] was “nuclear fragmentation”.
